Experimental data reported in patent US4921858A, “7-deazaguanines as immunomodulators” (Warner-Lambert Company, priority 1989, dated 1990).

Columns and labels:
rejection of skin graft = conditions: dogs; cited from earlier work
[1] = biological target: T1, purine nucleoside phosphorylase (PNP-4) (Homo sapiens, UniProt P00491); experiment: PNP-4 enzyme assay, radiochemical, formation of [14C]hypoxanthine from [14C]inosine; format: biochemical; conditions: human erythrocyte enzyme
T1 construct: using human erythrocyte as the enzyme source; from tissue; host or cells: human erythrocyte
T1 sequence (P00491 1-289): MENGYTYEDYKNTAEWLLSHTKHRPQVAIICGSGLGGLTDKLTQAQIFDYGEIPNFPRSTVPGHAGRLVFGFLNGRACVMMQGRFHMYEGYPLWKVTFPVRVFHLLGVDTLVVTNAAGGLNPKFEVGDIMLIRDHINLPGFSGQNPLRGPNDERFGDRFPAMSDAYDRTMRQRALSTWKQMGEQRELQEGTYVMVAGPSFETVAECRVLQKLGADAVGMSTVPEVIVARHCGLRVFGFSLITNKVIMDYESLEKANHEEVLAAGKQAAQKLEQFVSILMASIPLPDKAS
Procedure: In the purine nucleoside phosphorylase (PNP-4) enzyme assay, an IC50 is achieved at a dose of 1.0 micromoles on a selected compound of the present invention. PNP-4 activity for the compound of formula I is measured radiochemically by measuring the formation of [^14 --C]hypoxanthine from [^14 --C]inosine [Biomedicine, 33, 39 (1980)] using human erythrocyte as the enzyme source.

T-cells = experiment: HTBA-1 T-cell cytotoxicity in the presence of 2'-deoxyguanosine; format: cell-based
B-cell = experiment: HTBA-1 B-cell toxicity in the presence of 2'-deoxyguanosine; format: cell-based; conditions: in the presence of the same amount of 2'-deoxyguanosine

IC50 [1] | Compound | inhibiting rejection of skin graft (rejection of skin graft) | IC50 (T-cells; T-cell, + 10 μM 2'-deoxyguanosine, read-out: HTBA-1 T-Cell + 10 μM 2'-d Gua, IC50) | selective cytotoxicity for T-cells (T-cells; in the presence of 2'-deoxyguanosine, at a similar concentration range) | toxicity to B-cell (B-cell)
– | Nc1nc2c(nc(N)n2[C@@H]2O[C@H](CO)[C@@H](O)[C@H]2O)c(=O)[nH]1 [8-Aminoguanosine] | efficacious for inhibiting rejection of skin graft in dogs | – | – | –
1000 nM | Nc1nc2c(ccn2Cc2cccs2)c(=O)[nH]1 [Example 2, 2-Amino-7-(2-thienylmethyl)-4-pyrrolo[2,3-d]pyrimidone] | – | 2300 nM | selectively cytotoxic for T-cells | nontoxic to B-cell
